Experimental data: patent publication US11357779B2 (G1 Therapeutics, Inc., priority 2018, dated 2022)
Read-outs that look alike come from different tables or passages of the source.

Key:
[1] = Steady-state AUC0-24,ss, (AUC0-24,ss)/dose, half-life and time to steady state: Compound I versus palbociclib, ribociclib, abemaciclib; type: in vivo, human; conditions: for (Mean AUC0-24,ss)/Dose (mg) / Cmax / AUC(0-t): Day 29; for AUC(0-t): read-out: Mean AUC0-24,ss
Text: The time to reach steady state was defined as five half-lives (97% steady state achieved). […] The AUC data are presented as the arithmetic mean. […] The AUC data are presented as the geometric mean. The steady-state AUC0-24 for various BID doses of abemaciclib provided in Table 89 was obtained from the above cited prior published studies. The AUC data are presented as the geometric mean.

[2] = Apparent volume of distribution (Vd/F); type: in vivo; conditions: human, plasma, oral; 200 mg QD of compound II
Method: “Vd/F” (Liters) as used herein means the theoretical volume that would be necessary to contain the total amount of an administered drug at the same concentration that it is observed in the blood plasma. It is generally defined as the distribution of a medication between plasma and the rest of the body after oral or parenteral dosing. “Vd/F” as used herein is calculated by using the terminal elimination rate constant, which is derived mathematically from the concentration vs time curve to extrapolate a value of plasma concentration at time zero. Volume of distribution for oral drugs is normally expressed as Vd/F or Vz/F. The skilled artisan is familiar with calculating Vd/F or Vz/F.
The apparent volume of distribution (Vd/F) was calculated from the terminal rate constant (ke) derived from the plasma concentration-versus-time data provided for Compound I in Example 1 when dosed with 200 mg QD of Form B of Compound II.

[3] = human, in vivo
Method: Absolute neutrophil count (ANC) was determined from the blood sample obtained from subjects described in Example 1 on day 22 using standard methods.
Absolute neutrophil count (ANC) was also determined for blood samples obtained from subjects in all dosing cohorts (200 mg QD, 300 mg QD, 400 mg QD, 500 mg QD, 100 mg BID, and 150 mg BID dosage of Form B of Compound II).

[4] = Crystallization and slurry experiments, morphic forms of Compound II (XRPD, characterization); type: physicochemical; conditions: for Time point (1 day) XRPD: Stirring at RT
Method: Eleven unique XRPD patterns (Form A-Form K) of Compound II were obtained from crystallization and slurry experiments using various solvents.
Forms A, B, and D were evaluated as solid state forms.

[5] = Six- and twelve-month stability study of Form B at 25° C./60% RH and 40° C./75% RH; type: physicochemical
Method: Form B was stored at 25° C./60% RH for twelve months and at 40° C./75% RH for six months.

[6] = 200 mg QD of Form B of Compound II, five half-lives
[7] = human, plasma, oral, 200 mg QD of Form B of Compound II
[8] = human, plasma, oral, 300 mg QD of Form B of Compound II
[9] = human, plasma, oral, 400 mg QD of Form B of Compound II
[10] = human, plasma, oral, 500 mg QD of Form B of Compound II
[11] = human, plasma, oral, 650 mg QD of Form B of Compound II

In the case of CC(C)N1CCN(c2ccc(Nc3ncc4cc5n(c4n3)C3(CCCCC3)CNC5=O)nc2)CC1 [Compound I, 2′-((5-(4-isopropylpiperazin-1-yl)pyridin-2-yl)amino)-7′,8′-dihydro-6′H-spiro[cyclohexane-1,9′-pyrazino[1′,2′:1,5]pyrrolo[2,3-d]pyrimidin]-6′-one], the (Mean AUC0-24,ss)/Dose (mg) ([1]; 200 mg QD of Form B of Compound II) is reported as 1.15 ng·h/mL/mg, the “Time to Steady State” value [1, 6] is reported as 3.2 days and the “Time to Steady-State” value [1, 6] is reported as 76 h. It also gave a (Mean AUC0-24,ss)/Dose (mg) ([1]; 300 mg QD of Form B of Compound II) of 1.97 ng·h/mL/mg, a (Mean AUC0-24,ss)/Dose (mg) ([1]; 400 mg QD of Form B of Compound II) of 0.695 ng·h/mL/mg and a (Mean AUC0-24,ss)/Dose (mg) ([1]; 500 mg QD of Form B of Compound II) of 1.21 ng·h/mL/mg. For the same compound, the (Mean AUC0-24,ss)/Dose (mg) ([1]; 650 mg QD of Form B of Compound II) was 1.47 ng·h/mL/mg, the “(AUC0-24,ss)/Dose” value ([1]; Compound I, Day 29, QD dosing of Form B of Compound II) was no more than 5 and the half-life [1, 7] was 15.2 h. For the same compound, the Cmax [1, 7] was 20.4 ng/mL, the AUC(0-t) [1, 7] was 229 ng·h/mL and the Cmax [1, 8] was 47 ng/mL. For the same compound, the AUC(0-t) [1, 8] was 592 ng·h/mL, the Cmax [1, 9] was 19 ng/mL and the AUC(0-t) [1, 9] was 278 ng·h/mL. The Cmax [1, 10] was 43.2 ng/mL, the AUC(0-t) [1, 10] was 607 ng·h/mL and the Cmax [1, 11] was 66 ng/mL. The AUC(0-t) [1, 11] was 956 ng·h/mL, the Vd/F [2] was 15200 L and the “(AUC0-24,ss)/ANC” value ([3]; 200 mg) was 0.10. The “(AUC0-24,ss)/ANC” value ([3]; 300 mg) was 0.47 and the “(AUC0-24,ss)/ANC” value ([3]; 400 mg) was 0.15.
For CC(C)N1CCN(c2ccc(Nc3ncc4cc5n(c4n3)C3(CCCCC3)CNC5=O)nc2)CC1 [Compound II, 2′-((5-(4-isopropylpiperazin-1-yl)pyridin-2-yl)amino)-7′,8′-dihydro-6′H-spiro[cyclohexane-1,9′-pyrazino[1′,2′:1,5]pyrrolo[2,3-d]pyrimidin]-6′-one], the XRPD ([4]; MeOH/0.5 mL, 60.0° C., Fast Cooling (4° C.), anti solvent EtOAc/0.2 mL, ppt/filter) was “Weak crystalline”, the XRPD ([4]; MeOH/0.5 mL, 60.0° C., Fast Cooling (4° C.), anti solvent n-BuOH/5.0 mL, ppt/filter) was “Weak crystalline” and the XRPD ([4]; MeOH/0.5 mL, 60.0° C., Fast Cooling (4° C.), anti solvent n-PrOH/5.0 mL, ppt/filter) was “Weak crystalline”. For the same compound, the XRPD ([4]; MeOH/0.5 mL, 60.0° C., Slow Cooling (20° C./hr), anti solvent Acetone/0.5 mL, ppt/filter) was “Weak crystalline”, the XRPD ([4]; MeOH/0.5 mL, 60.0° C., Slow Cooling (20° C./hr), anti solvent EtOH/5.0 mL, ppt/filter) was “Weak crystalline” and the XRPD ([4]; MeOH/0.5 mL, 60.0° C., Slow Cooling (20° C./hr), anti solvent MIBK/0.1 mL, ppt/filter (first listing)) was “Weak crystalline”. The XRPD ([4]; MeOH/0.5 mL, 60.0° C., Slow Cooling (20° C./hr), anti solvent MeCN/2.5 mL, ppt/filter) was “Weak crystalline”, the XRPD ([4]; MeOH/0.5 mL, 60.0° C., Slow Cooling (20° C./hr), anti solvent THF/0.5 mL, ppt/filter) was “Weak crystalline” and the XRPD ([4]; MeOH/0.5 mL, 60.0° C., Slow Cooling (20° C./hr), anti solvent Toluene/1.5 mL, ppt/filter (second listing)) was “Weak crystalline”. For the same compound, the XRPD ([4]; MeOH/0.5 mL, 60.0° C., Slow Cooling (20° C./hr), anti solvent n-BuOH/5.0 mL, ppt/filter) was “Weak crystalline”, the XRPD ([4]; MeOH/0.5 mL, 60.0° C., Slow Cooling (20° C./hr), anti solvent n-PrOH/5.0 mL, ppt/filter) was “Weak crystalline” and the XRPD ([4]; Water/0.5 mL, 60.0° C., Fast Cooling (4° C.), anti solvent EtOH/5.0 mL, Clear/Evap.) was “Weak crystalline”. For the same compound, the XRPD ([4]; Water/0.5 mL, 60.0° C., Fast Cooling (4° C.), anti solvent MeCN/5.0 mL, ppt/filter) was “Weak crystalline”, the XRPD ([4]; Water/0.5 mL, 60.0° C., Fast Cooling (4° C.), anti solvent THF/3.0 mL, ppt/filter) was “Weak crystalline” and the XRPD ([4]; Water/0.5 mL, 60.0° C., Fast Cooling (4° C.), anti solvent n-PrOH/5.0 mL, Clear/Evap.) was “Weak crystalline”. For the same compound, the XRPD ([4]; Water/0.5 mL, 60.0° C., Slow Cooling (20° C./hr), anti solvent EtOH/5.0 mL, Clear/Evap.) was “Weak crystalline”, the XRPD ([4]; single solvent crystallization: 1-BuOH 4.0 mL, 60° C., Fast Cooling (4° C.), ppt/filter) was “Weak” and the XRPD ([4]; single solvent crystallization: 1-PrOH 4.0 mL, 60° C., Fast Cooling (4° C.), ppt/filter) was “Weak”. The XRPD ([4]; single solvent crystallization: 1-PrOH 4.0 mL, 60° C., Slow (20° C./hr), ppt/filter) was “Weak”, the XRPD ([4]; single solvent crystallization: MeOH 0.5 mL, 60° C., Fast Cooling (4° C.), ppt/filter) was “Weak” and the XRPD ([4]; single solvent crystallization: Water 2.0 mL, 60° C., Fast Cooling (4° C.), Turbid/Evap.) was “Weak”. For the same compound, the XRPD ([4]; single solvent crystallization: Water 2.0 mL, 60° C., Slow (20° C./hr), Turbid/Evap.) was “Weak”, the “Time point (1 day) XRPD” value ([4]; slurry in 2-MeTHF 1.0 mL) was “Weak” and the “Time point (1 day) XRPD” value ([4]; slurry in IPAc 1.0 mL) was “A with extra”. For the same compound, the “Time point (1 day) XRPD” value ([4]; slurry in MEK 1.0 mL) was “Weak” and the “Time point (1 day) XRPD” value ([4]; slurry in THF 1.0 mL) was “Weak”.
In the case of CC(C)N1CCN(c2ccc(Nc3ncc4cc5n(c4n3)C3(CCCCC3)CNC5=O)nc2)CC1 [Form B], the “long-term stability, time stable” value ([5]; 25° C. and 60% relative humidity) is reported as “at least 1 year”, the Appearance ([5]; 25° C./60% RH, 0M) is reported as “Yellow” and the “HPLC Purity” value ([5]; 25° C./60% RH, 0M) is reported as 99.5%. The “Moisture (%)” value ([5]; 25° C./60% RH, 0M) was 4.9%, the XRPD ([5]; 25° C./60% RH, 0M) was “Form B” and the Appearance ([5]; 25° C./60% RH, 3M) was “Yellow”. The “HPLC Purity” value ([5]; 25° C./60% RH, 3M) was 99.5%, the “Moisture (%)” value ([5]; 25° C./60% RH, 3M) was 4.07% and the Appearance ([5]; 25° C./60% RH, 6M) was “Yellow”. The “HPLC Purity” value ([5]; 25° C./60% RH, 6M) was 99.5%, the “Moisture (%)” value ([5]; 25° C./60% RH, 6M) was 7.53% and the Appearance ([5]; 25° C./60% RH, 9M) was “Yellow”. The “HPLC Purity” value ([5]; 25° C./60% RH, 9M) was 99.6%, the “Moisture (%)” value ([5]; 25° C./60% RH, 9M) was 7.29% and the Appearance ([5]; 25° C./60% RH, 12M) was “Yellow”. The “HPLC Purity” value ([5]; 25° C./60% RH, 12M) was 99.5%, the “Moisture (%)” value ([5]; 25° C./60% RH, 12M) was 7.48% and the XRPD ([5]; 25° C./60% RH, 12M) was “Form B”. For the same compound, the “XRPD spectrum at the longest time point studied” value ([5]; 25° C./60% RH, twelve months) was “conformed to the reference spectrum”, the “purity at the longest time point studied” value ([5]; 25° C./60% RH, twelve months) was 99.5% and the Appearance ([5]; 40° C./75% RH, 0M) was “Yellow solid”. For the same compound, the “HPLC Purity” value ([5]; 40° C./75% RH, 0M) was 99.5%, the “Moisture (%)” value ([5]; 40° C./75% RH, 0M) was 4.9% and the XRPD ([5]; 40° C./75% RH, 0M) was “Form B”. The Appearance ([5]; 40° C./75% RH, 1M) was “Yellow solid”, the “HPLC Purity” value ([5]; 40° C./75% RH, 1M) was 99.5% and the “Moisture (%)” value ([5]; 40° C./75% RH, 1M) was 2.75%. For the same compound, the Appearance ([5]; 40° C./75% RH, 3M) was “Yellow solid”, the “HPLC Purity” value ([5]; 40° C./75% RH, 3M) was 99.5% and the “Moisture (%)” value ([5]; 40° C./75% RH, 3M) was 7.47%. The XRPD ([5]; 40° C./75% RH, 3M) was “Form B”, the Appearance ([5]; 40° C./75% RH, 6M) was “Yellow solid” and the “HPLC Purity” value ([5]; 40° C./75% RH, 6M) was 99.5%. For the same compound, the “Moisture (%)” value ([5]; 40° C./75% RH, 6M) was 7.53%, the XRPD ([5]; 40° C./75% RH, 6M) was “Form B” and the “XRPD spectrum at the longest time point studied” value ([5]; 40° C./75% RH, six months) was “conformed to the reference spectrum”. For the same compound, the “purity at the longest time point studied” value ([5]; 40° C./75% RH, six months) was 99.5%.
